For 10 compounds, IC50 results are on record in patent US12331054B2, “Perk inhibiting imidazolopyrazine compounds” (HiberCell, Inc., priority 2019, dated 2025).

SMILES strings stand for the structures.

Assay [1] concerns the target Recombinant human EIF2AK3 (PERK) catalytic domain (amino acids 536-1116) (Homo sapiens (Human), UniProt Q9NZJ5). Description: PERK In Vitro Activity Assay (isolated), TR-FRET kinase assay. The settings on record: isolated PERK enzyme, 1.5 μM ATP, read-out: Biochemical IC50. The procedure, abridged:
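IC50 values come from 4-parameter logistic fits of TR-FRET ratios, read after 90 min with 2 nM terbium-labelled phospho-eIF2a antibody following an EDTA stop (10 mM final). The kinase reaction ran 45 min at room temperature, started by adding PERK catalytic domain to 100–200 nM GFP-eIF2a in HEPES pH 7.5 buffer with MgCl2, EGTA and Brij-35.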

Assay [2] has as its system eIF2α in HEK293-EGFP-eIF2α cells. Description: PERK Cellular Assay (HEK293-EGFP-eIF2α cells, tunicamycin-induced ER stress, TR-FRET). The format is cell-based. As to conditions: tunicamycin 2 hours. The procedure, abridged: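 After 2 h tunicamycin ([…]) stress following 30 min compound pretreatment at 37 °C, lysed HEK293-EGFP-eIF2α cells were read by TR-FRET. IC50 derived by 4-parameter logistic fitting of percent inhibition, DMSO-normalized, from 10-point 3-fold dilutions.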
A general note: Time-resolved FRET reads energy transfer from a long-lived donor to a nearby acceptor.

Recombinant human EIF2AK3 (PERK) catalytic domain (amino acids 536-1116), sequence (Q9NZJ5 536-1116): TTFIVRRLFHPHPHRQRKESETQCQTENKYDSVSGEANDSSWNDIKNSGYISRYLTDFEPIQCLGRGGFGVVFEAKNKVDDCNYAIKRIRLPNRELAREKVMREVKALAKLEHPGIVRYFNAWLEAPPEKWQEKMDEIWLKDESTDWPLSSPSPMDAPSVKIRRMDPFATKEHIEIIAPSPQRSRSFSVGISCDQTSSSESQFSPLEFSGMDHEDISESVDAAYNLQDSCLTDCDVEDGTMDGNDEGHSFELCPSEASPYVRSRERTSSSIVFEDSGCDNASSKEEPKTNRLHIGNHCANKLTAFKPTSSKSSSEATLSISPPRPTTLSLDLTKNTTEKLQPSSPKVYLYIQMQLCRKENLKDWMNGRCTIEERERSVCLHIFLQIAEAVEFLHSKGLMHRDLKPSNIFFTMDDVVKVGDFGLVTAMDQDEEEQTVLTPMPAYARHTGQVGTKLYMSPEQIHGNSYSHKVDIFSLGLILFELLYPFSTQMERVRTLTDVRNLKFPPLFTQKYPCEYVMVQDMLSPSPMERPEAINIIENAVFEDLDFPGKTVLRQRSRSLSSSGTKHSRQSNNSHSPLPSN

With `Cc1cc(NC(=O)C(O)c2cccc(F)c2)ccc1-c1nc(C)n2ccnc(N)c12` (centres unmarked) [Example 1, N-(4-(8-amino-3-methylimidazo[1,5-a]pyrazin-1-yl)-3-methylphenyl)-2-(3-fluorophenyl)-2-hydroxyacetamide], the figures for the concentration for half-maximal inhibition (IC50) in assay [1] and in assay [2] were 1 to 25 nM and 26 to 50 nM, respectively.

Consider `[2H]C([2H])([2H])c1nc(-c2ccc(NC(=O)C(O)c3cc(F)cc(F)c3)cc2C)c2c(N)nc(C)cn12` (centres unmarked) [Example 44, N-[4-[8-amino-6-methyl-3-(trideuteriomethyl)imidazo[1,5-a]pyrazin-1-yl]-3-methyl-phenyl]-2-(3,5-difluoro-phenyl)-2-hydroxy-acetamide], for which the IC50 fell in the range of 1 to 25 nM in assay [1] and 101 to 250 nM in assay [2].

Take `[2H]C([2H])([2H])c1nc(-c2ccc(NC(=O)C(O)c3cccc(C(F)(F)F)c3)nc2C)c2c(N)nc(C)cn12` (centres unmarked) [Example 176, N-[5-[8-amino-6-methyl-3-(trideuteriomethyl)imidazo[1,5-a]pyrazin-1-yl]-6-methyl-2-pyridyl]-2-hydroxy-2-[3-(trifluoromethyl)phenyl]acetamide]: the IC50 was 1 to 25 nM in assay [1] and 51 to 100 nM in assay [2].

Take `[2H]C([2H])([2H])c1nc(-c2ccc(NC(=O)C(O)c3cc(F)cc(C(F)(F)F)c3)c(F)c2F)c2c(N)ncc(C(F)(F)F)n12` (centres unmarked) [Example 163, N-[4-[8-amino-3-(trideuteriomethyl)-5-(trifluoromethyl)imidazo[1,5-a]pyrazin-1-yl]-2,3-difluoro-phenyl]-2-[3-fluoro-5-(trifluoromethyl)phenyl]-2-hydroxy-acetamide]: the IC50 in assay [1] and in assay [2] was 251 to 500 nM each time.

For the compound `[2H]C([2H])([2H])c1nc(-c2ccc(NC(=O)C(O)c3cccc(Cl)c3)cc2F)c2c(N)ncc(C)n12` (centres unmarked) [Example 84, N-[4-[8-amino-5-methyl-3-(trideuteriomethyl)imidazo[1,5-a]pyrazin-1-yl]-3-fluoro-phenyl]-2-(3-chlorophenyl)-2-hydroxy-acetamide], the IC50 in assay [1] and in assay [2] was 1 to 25 nM in each case.

Regarding `[2H]C([2H])([2H])c1nc(-c2ccc(NC(=O)C(O)c3cc(F)cc(F)c3)cc2C)c2c(N)ncc(C)n12` (centres unmarked) [Example 50, N-[4-[8-amino-5-methyl-3-(trideuteriomethyl)imidazo[1,5-a]pyrazin-1-yl]-3-methyl-phenyl]-2-(3,5-difluoro-phenyl)-2-hydroxy-acetamide], the IC50 in assay [1] and in assay [2] was 1 to 25 nM throughout.

Regarding `CCc1cc(NC(=O)C(O)c2cccc(F)c2)ccc1-c1nc(C)n2c(C)cnc(N)c12` (centres unmarked) [Example 67, N-(4-(8-amino-3,5-dimethylimidazo [1,5-a]pyrazin-1-yl)-3-ethylphenyl)-2-(3-fluorophenyl)-2-hydroxy-acetamide], the IC50 in assay [1] was in the range of 1 to 25 nM; in assay [2] it was 101 to 250 nM.

Regarding `[2H]C([2H])([2H])c1nc(-c2ccc(NC(=O)C(O)c3cccc(Cl)c3)cc2C)c2c(N)ncc(Cl)n12` (centres unmarked) [Example 43, N-[4-[8-amino-5-chloro-3-(trideuteriomethyl)imidazo[1,5-a]pyrazin-1-yl]-3-methyl-phenyl]-2-(3-chlorophenyl)-2-hydroxy-acetamide], the 50% inhibitory concentration (IC50) in assay [1] lay in the range of 1 to 25 nM; in assay [2] it was 26 to 50 nM.

Take `[2H]C([2H])([2H])c1nc(-c2ccc(NC(=O)C(O)c3cc(F)cc(C(F)(F)F)c3)c(F)c2F)c2c(N)ncc(C(F)(F)F)n12` (centres unmarked) [Example 162, N-[4-[8-amino-3-(trideuteriomethyl)-5-(trifluoromethyl)imidazo[1,5-a]pyrazin-1-yl]-2,3-difluoro-phenyl]-2-[3-fluoro-5-(trifluoromethyl)phenyl]-2-hydroxy-acetamide]: the 50% inhibitory concentration (IC50) in assay [1] and in assay [2] was 1 to 25 nM throughout.

Regarding `[2H]C([2H])([2H])c1nc(-c2ccc(NC(=O)C(O)c3cc(F)cc(C(F)(F)F)c3)c(F)c2F)c2c(N)nc(C)cn12` (centres unmarked) [Example 166, N-[4-[8-amino-6-methyl-3-(trideuteriomethyl)imidazo[1,5-a]pyrazin-1-yl]-2,3-difluoro-phenyl]-2-[3-fluoro-5-(trifluoromethyl)phenyl]-2-hydroxy-acetamide], the IC50 in assay [1] and in assay [2] was 1 to 25 nM throughout.

As a reminder, the IC50 is the point on the concentration scale where inhibition reaches its midpoint.
